Measured values as given in PubChem BioAssay (NCI).
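Dose response: 5 concentrations. Exposure: 48 h. Format: 96-well plates. Endpoint: linear interpolation; highest concentration if not reached. GI50: concentration for 50% inhibition of growth. TGI denotes the concentration required for complete inhibition of growth.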

Columns and labels:
Assay in all cases: growth of human tumour cells (NCI), 48 h
[1] = system: SNB-78 CNS
[2] = system: SW-620 colon
[3] = system: DLD-1 colon
[4] = system: XF 498 CNS
[5] = system: SK-MEL-2 melanoma
[6] = system: DMS 273 small cell lung
[7] = system: M19-MEL melanoma
[8] = system: MOLT-4 leukemia
[9] = system: TK-10 renal
[10] = system: IGROV1 ovarian
[11] = system: LXFL 529 NSCLC
[12] = system: HOP-18 NSCLC
[13] = system: T-47D breast

Compound | TGI [1] [µM] | TGI [2] [µM] | TGI [3] [µM] | TGI [4] [µM] | TGI [5] [µM] | TGI [6] [µM] | TGI [7] [µM] | TGI [8] [µM] | TGI [9] [µM] | TGI [10] [µM] | TGI [11] [µM] | TGI [12] [µM] | TGI [13] [µM] | GI50 [2] [µM] | GI50 [5] [µM] | GI50 [8] [µM] | GI50 [9] [µM] | GI50 [13] [µM] | GI50 [10] [µM]
O=CN/C=C/c1ccc(O)c(O)c1 | > 100 | > 100 | > 100 | > 100 | > 100 | > 100 | > 100 | > 100 | > 100 | > 100 | > 100 | – | – | – | – | – | – | – | –
CCOC(=O)NC(=O)c1cn(CCCCCCOC(=O)NCCCCCCNC(=O)OCCCCCCn2cc(C(=O)NC(=O)OCC)c(=O)[nH]c2=O)c(=O)[nH]c1=O | – | > 100 | > 100 | – | > 100 | > 100 | > 100 | > 100 | – | > 100 | > 100 | > 100 | – | – | – | – | – | – | –
N#CC(c1nc2ccccc2nc1Cl)S(=O)(=O)c1ccccc1 (stereo unspecified) | 94.4 | > 100 | > 100 | > 100 | > 100 | > 100 | > 100 | > 100 | > 100 | – | > 100 | – | – | – | – | – | – | – | –
COc1c(Cl)cc(NC(=S)C#N)cc1Cl | 85.9 | > 100 | > 100 | – | 86.2 | 83.2 | 50.2 | > 100 | > 100 | > 82.6 | 85.8 | 60.1 | 90.6 | – | – | – | – | – | –
COC(=O)c1cc(Cl)ccc1NC(=O)c1ccc([N+](=O)[O-])cc1 | > 100 | > 100 | > 100 | 35.9 | > 100 | 77.3 | > 100 | > 100 | 40.6 | 57.8 | > 100 | – | – | – | – | – | – | – | –
CC(C)c1cccc2sc(NC(=O)C(=O)C(C#N)c3cccc4ccccc34)nc12 (stereo unspecified) | > 100 | > 100 | > 100 | – | > 100 | > 100 | > 100 | > 100 | > 100 | > 100 | > 100 | > 100 | – | – | – | – | – | – | –
C/C(CC(=O)Nc1ccc(Cl)cc1)=N\NC(N)=S | > 100 | > 100 | > 100 | > 100 | > 100 | > 100 | > 100 | > 100 | > 100 | > 100 | > 100 | – | – | – | – | – | – | – | –
COC(=O)C1=CC2C(=O)OC1CC2C#N (stereo unspecified) | > 100 | > 100 | > 100 | > 100 | – | > 100 | – | > 100 | > 100 | > 100 | > 100 | > 100 | – | – | – | – | – | – | –
COc1ccc(C2=NN(c3ccccc3)C[N+](c3ccc(OC)cc3)=N2)cc1 | 80.5 | 61 | > 100 | 39.1 | – | 66.1 | > 100 | 90.7 | > 100 | > 100 | 45.4 | – | – | – | – | – | – | – | –
CC(=O)C1C(=O)C(=O)N(c2ccccc2C(C)C)C1=O (stereo unspecified) | > 100 | > 100 | – | > 100 | > 100 | – | > 100 | > 100 | > 100 | > 100 | > 100 | > 100 | – | – | – | – | – | – | –
COc1ccc(C2SC(C)C(=O)N2NC(=O)C(O)c2ccccc2)cc1OC (stereo unspecified) | – | > 100 | – | – | > 100 | – | – | > 100 | > 100 | > 100 | – | – | > 100 | > 100 | > 100 | > 100 | > 100 | > 100 | > 100
Cn1cc(C2=C(c3cccc(OCC(O)CO)c3)C(=O)NC2=O)c2ccccc21 (stereo unspecified) | – | > 25 | – | – | > 25 | – | – | > 25 | > 25 | > 25 | – | – | > 25 | > 25 | > 25 | > 25 | > 25 | > 25 | > 25
Nc1nc(Nc2ccc(C3CCC(N4CCOCC4)CC3)cc2)nn1-c1ccccn1 (stereo unspecified) | – | > 100 | – | – | > 61.8 | – | – | 20.1 | > 100 | > 100 | – | – | > 100 | 3.4 | 7.77 | 2.86 | > 21.5 | > 31.5 | 3.57
CN1CC[C@@H](c2c(O)cc(O)c3c(=O)cc(-c4ccccc4Cl)oc23)[C@@H]1CO | – | > 10 | – | – | 0.594 | – | – | > 3.79 | > 10 | > 10 | – | – | 1.1 | 0.276 | 0.228 | 0.295 | 0.293 | 0.245 | 0.282
CC1(C)C2C=CC1(C)C1(CC2)OCCO1 (stereo unspecified) | – | > 100 | – | – | > 100 | – | – | > 100 | > 100 | > 100 | – | – | > 100 | – | – | – | – | – | –
CN1c2ccccc2N(C)C23N(C)c4ccccc4N(C)C12N(C)c1ccccc1N3C (stereo unspecified) | – | > 100 | > 100 | > 100 | > 100 | > 100 | > 100 | > 100 | > 100 | > 100 | – | – | – | – | – | – | – | – | –
Cc1ccc(Nc2nc(C)c(C(/C=C/c3ccc(/C=C/C(=N/NC(=O)C[n+]4ccccc4)c4sc(Nc5ccc(C)cc5[N+](=O)[O-])nc4C)cc3)=N\NC(=O)C[n+]3ccccc3)s2)c([N+](=O)[O-])c1 | > 100 | > 100 | > 100 | – | > 100 | > 100 | > 100 | > 100 | > 100 | > 100 | > 100 | 68 | – | – | – | – | – | – | –
COc1ccc(/C=N/N=C(\N)NO)c(OC)c1 | > 100 | > 100 | > 100 | – | > 100 | – | > 100 | > 100 | – | > 100 | 86.3 | > 100 | – | – | – | – | – | – | –
CS[C@]12C(=O)C[C@@]3(C)[C@@H](CC[C@]3(O)C(=O)CO)[C@@H]1CCC1=CC(=O)CC[C@@]12C | – | > 100 | – | – | > 100 | – | – | > 100 | > 100 | > 100 | – | – | > 100 | – | – | – | – | – | –
Cc1ccc(S(=O)(=O)Nc2cccc3[nH]c(C(F)(F)F)nc23)cc1 | – | > 100 | – | – | 3.54 | – | – | 29 | 61.8 | > 100 | – | – | 57 | 0.382 | 0.321 | 0.605 | 2.98 | 0.492 | 0.832
